Test results: US20130324522A1, “INSECT ODORANT RECEPTOR ANTAGONISTS” (THE ROCKEFELLER UNIVERSITY, priority 2010, published 2013)
Where two headings read alike, the source gives them in different places.

Assays:
Or47a/Or83b = molecular target: T1, Or47a/Or83b (Drosophila melanogaster, UniProt P81921+Q9VNB5); assay: Ca2+-imaging of stable Flip-In T-Rex cell line Or47a/Or83b; format: cell-based; details: for inhibition at 4 µM: read-out: Percent Inhibition OR47a OR83b; for IC50: read-out: IC50 OR47a
T1 construct: Full-length cDNAs for mosquito (Anopheles gambiae) odorant receptor (OR1, OR2, OR7, OR8, OR28), and fly (Drosophila melanogaster) odorant receptor (Or47a, Or83b); expressed in transfected cells
T1 sequence (P81921 1-385): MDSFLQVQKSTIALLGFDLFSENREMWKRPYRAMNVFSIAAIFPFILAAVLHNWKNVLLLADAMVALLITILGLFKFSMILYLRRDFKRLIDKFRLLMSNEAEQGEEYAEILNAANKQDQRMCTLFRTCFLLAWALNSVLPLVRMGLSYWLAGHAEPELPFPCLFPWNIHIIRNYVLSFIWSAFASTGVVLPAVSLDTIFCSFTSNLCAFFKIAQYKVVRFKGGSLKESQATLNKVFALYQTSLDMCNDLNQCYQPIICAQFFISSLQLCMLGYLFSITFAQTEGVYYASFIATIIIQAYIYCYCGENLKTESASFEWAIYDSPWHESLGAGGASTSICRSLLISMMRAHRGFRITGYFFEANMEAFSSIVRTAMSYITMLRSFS
T1 sequence (Q9VNB5 1-486): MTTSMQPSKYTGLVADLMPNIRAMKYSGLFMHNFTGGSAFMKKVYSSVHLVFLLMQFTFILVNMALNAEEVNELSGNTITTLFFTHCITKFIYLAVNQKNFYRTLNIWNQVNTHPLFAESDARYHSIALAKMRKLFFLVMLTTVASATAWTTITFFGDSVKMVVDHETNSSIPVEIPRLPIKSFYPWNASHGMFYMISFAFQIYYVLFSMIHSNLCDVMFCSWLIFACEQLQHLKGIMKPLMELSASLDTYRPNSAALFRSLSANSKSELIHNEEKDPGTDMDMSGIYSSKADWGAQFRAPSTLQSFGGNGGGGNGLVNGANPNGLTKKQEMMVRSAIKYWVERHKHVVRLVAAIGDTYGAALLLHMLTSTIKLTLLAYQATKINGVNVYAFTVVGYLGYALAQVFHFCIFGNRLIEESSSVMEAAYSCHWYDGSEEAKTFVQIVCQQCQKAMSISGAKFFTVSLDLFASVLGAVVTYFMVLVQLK
Summary of the method: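 Flp-In T-REx stable lines (Drosophila Or47a/Or83b or mouse 5HT3), 10,000 cells/well cultured 2 days, induced with tetracycline 1 day before assay.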

mOREG = molecular target: T2, mOREG (Mus musculus, UniProt Q920P2); assay: Ca2+-imaging, control receptor mOREG; format: cell-based; details: for IC50: Table B; for inhibition at 4 µM: compound applied at 4 μM, read-out: Percent Inhibition mOREG
T2 sequence (Q920P2 1-313): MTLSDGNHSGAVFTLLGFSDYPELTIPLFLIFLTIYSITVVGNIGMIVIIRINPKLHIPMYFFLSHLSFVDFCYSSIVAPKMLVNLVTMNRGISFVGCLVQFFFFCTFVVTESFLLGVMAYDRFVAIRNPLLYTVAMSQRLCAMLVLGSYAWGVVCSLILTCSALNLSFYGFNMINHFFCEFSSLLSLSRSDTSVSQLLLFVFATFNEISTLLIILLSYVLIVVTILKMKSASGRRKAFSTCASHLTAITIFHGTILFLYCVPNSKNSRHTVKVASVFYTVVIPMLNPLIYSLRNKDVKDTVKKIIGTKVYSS
Experimental: Stable cell lines were cultured in 10 cm dishes, and confluent cells (70-80%) were trypsinized. 10,000 cells/20 μL were transferred into each well of 384-well plates coated with poly-D-lysine, and cultured for 2 days. For Flip-In T-Rex cells (cell lines expressing Or47a/Or83b and 5HT3), 5 μL of tetracycline (5 μg/mL) were added 1 day before the assay. 20 μL of Ca-4 dye was loaded into each well for 1.5 hr at room temperature in the dark, and the dye-loaded plates were subjected to Ca^2+-imaging using a Hamamatsu FDSS6000 real time fluorescence plate reader. Odorant solutions (9× final concentration) were prepared by dissolving 1M stock solutions into Hank's Buffered Salt Solution (HBSS), and 30 μL of odor solution was transferred to each well in 384-well plates. The last two columns of the plate (32 wells total) were used as control wells as follows: • negative control with HBSS buffer (16 wells) • positive control with ligands (16 wells).
Compounds ([…] in DMSO) were stored in 384-well plates, and last two columns (32 wells total) contained only DMSO. 200 nL of small compounds were transferred into the odorant plates before the assay using the Perkin-Elmer Janus workstation. The odorant plates were spun down to remove air bubbles, and placed on the FDSS6000 plate loader, and 5 μL of odorant solution was applied to the cell plate on the FDSS6000. Ca^2+ increase was monitored with fluorescence at 525 nm by excitation at 485 nm.

SMILES	inhibition at 4 µM (Or47a/Or83b; compound applied at 4 μM)	IC50 (mOREG)	inhibition at 4 µM (mOREG)	IC50 (Or47a/Or83b; Table B)	IC50 (Or47a/Or83b)	inhibition at 4 µM (Or47a/Or83b)
CCN(CC)C(=O)Oc1ccc2c(ccn2Cc2cccc(C)c2)c1NC(=O)[C@H](C)OC(C)=O [RU-0075468]	< 25%	< 100 nM	> 75%	–	–	–
CN(C)c1nc(N(C)C)nc(N(C)C)n1 [RU-0000619]	51 to 74%	> 1000 nM	51 to 74%	> 1000 nM	–	–
COc1ccc(N2CCN(C(=O)C3CC=CCC3C(=O)NCCCCc3ccccc3)CC2)cc1 (centres unmarked) [RU-0026167]	51 to 74%	–	26 to 50%	> 1000 nM	–	–
CC(NC(=O)c1cc2n(n1)CCN(Cc1c(Cl)cccc1Cl)C2=O)c1ccccc1 (centres unmarked) [RU-0045115]	26 to 50%	–	26 to 50%	–	–	–
COc1ccccc1N1CCN(C(=O)c2cc3n(n2)CCN(Cc2c(F)cccc2Cl)C3=O)CC1 [RU-0043595]	51 to 74%	> 1000 nM	51 to 74%	> 1000 nM	–	–
O=C1CN(S(=O)(=O)c2c(F)cc(F)cc2F)CC2c3cccc(F)c3CCN12 (centres unmarked) [RU-0076832]	< 25%	–	26 to 50%	–	–	–
COc1nc(OCC#N)nc(N2CCCCC2)n1 [RU-0006256]	51 to 74%	–	< 25%	> 1000 nM	–	–
COCCN(Cc1cc(Cl)ccc1OS(=O)(=O)c1ccc(F)cc1)C(=O)C1CCC1 [RU-0035287]	51 to 74%	–	26 to 50%	< 100 nM	–	–
COCCNC(=O)c1ccc(CSc2nnc(-c3ccc(C)cc3)n2-c2ccccc2F)cc1 [RU-0051652]	< 25%	–	< 25%	–	–	–
COc1nc(NC(C)C)nc(NC(C)C)n1 [RU-0001534]	51 to 74%	–	< 25%	> 1000 nM	–	–
CCOC(=O)C(c1cccc(OC)c1)C1C=CC(NC(=O)c2cccs2)C1 (centres unmarked) [RU-0074560]	26 to 50%	–	< 25%	–	–	–
COCCCN(CC(=O)N1CCc2sccc2C1COc1cccc(OC)c1)C(=O)c1ccccc1OC (centres unmarked) [RU-0036294]	51 to 74%	–	26 to 50%	–	–	–
COc1ccc(C(=O)c2ccccc2)c(O)c1O [RU-0001617]	51 to 74%	–	< 25%	> 1000 nM	–	–
Cc1ccc(CN(Cc2ccc(F)cc2)C(=O)CN(C(=O)NC(C)(C)C)C2CC2)s1 [RU-0052360]	26 to 50%	–	26 to 50%	–	–	–
COc1ccc(N2CCN(C(=O)C3CC=CCC3C(=O)NC(c3ccccc3)c3ccccn3)CC2)cc1 (centres unmarked) [RU-0026507]	26 to 50%	–	< 25%	–	–	–
CCOCCCN(CC(=O)N(Cc1ccc2c(c1)OCO2)Cc1sccc1C)C(=O)NC(C)(C)C [RU-0052340]	26 to 50%	–	26 to 50%	–	–	–
Cc1cc(C)c2c(c1C(=O)N1CCC3(CC1)C(=O)NCN3c1ccccc1)CC(C)(C)C2=O [RU-0025771]	–	–	26 to 50%	–	> 1000 nM	> 75%
CN(Cc1ccccc1)C(=O)CCC1CCN(C(=O)CCOc2ccccc2)CC1 [RU-0028727]	> 75%	> 1000 nM	51 to 74%	< 100 nM	–	–
Cc1ccc(-n2nc(C)c(CCC(=O)N3CCc4ccccc4C3)c2C)cc1Cl [RU-0026074]	51 to 74%	–	< 25%	> 1000 nM	–	–
CCOc1ccccc1C(=O)NNC(=O)COc1cc(C)cc(C)c1 [RU-0023245]	> 75%	–	26 to 50%	> 1000 nM	–	–
Cc1ccc(CN(CCc2ccccc2)C(=O)CN(C(=O)NC(C)(C)C)C(C)C)o1 [RU-0072008]	26 to 50%	–	26 to 50%	–	–	–
COCCCN(CC(=O)N1CCc2sccc2C1c1ccc(OC)cc1)C(=O)C(C)(C)CCl (centres unmarked) [RU-0069950]	51 to 74%	> 1000 nM	51 to 74%	> 1000 nM	–	–
CCCCc1nc(CN2CCc3c([nH]c4ccccc34)C2c2cccc(OC)c2OC)c[nH]1 (centres unmarked) [RU-0031879]	51 to 74%	–	26 to 50%	> 1000 nM	–	–
CC(NCc1ccccc1)c1nc2ccccc2c(=O)n1-c1ccc(Cl)cc1 (centres unmarked) [RU-0072535]	26 to 50%	–	26 to 50%	–	–	–
COC(=O)C(Cc1ccccc1)NC(=O)C1CC1(c1ccccc1)c1ccccc1 (centres unmarked) [RU-0028029]	> 75%	–	< 25%	> 1000 nM	–	–
COc1cc(OC)cc(C2NC(=O)N(C)C3=C2C(=O)N(C2CCCCC2)C3)c1 (centres unmarked) [RU-0047750]	26 to 50%	–	< 25%	–	–	–
COc1ccc(-c2nnc(SCc3ccc(C#N)cc3)n2-c2ccc(C)cc2)cc1 [RU-0046426]	26 to 50%	> 1000 nM	51 to 74%	–	–	–
C=C[C@@](C)(O)CCC1C(=C)CCC2[C@@](C)(CO)CCC[C@]12C (some centres unmarked) [RU-0001327]	< 25%	–	26 to 50%	–	–	–
CCOC(=O)C(c1ccc(OC)c(OC)c1)C1C=CC(NC(=O)c2ccc3c(c2)OCO3)C1 (centres unmarked) [RU-0049030]	26 to 50%	–	< 25%	–	–	–
COCCCN(CC(=O)N1CCc2sccc2C1COc1cccc(OC)c1)C(=O)Cc1ccccc1 (centres unmarked) [RU-0036264]	< 25%	–	< 25%	–	–	–
